{"source": "patent US20250281424A1", "about": "(New York Blood Center, Inc, priority 2020, published 2025)", "key": {"[1]": {"biological_target": "T1, ultra large complexes (ULC) between PF4 tetramers and heparin (Homo sapiens, UniProt P02776)", "T1 construct": "platelet factor 4 which is a 70 amino acid, lysine-rich, 7.8 kDa platelet-specific protein", "T1 sequence (P02776 32-101)": "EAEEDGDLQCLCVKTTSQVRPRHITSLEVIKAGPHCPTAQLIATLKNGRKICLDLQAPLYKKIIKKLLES", "assay": "Inhibition of formation of ultra large complexes (ULC) of PF4 tetramers and heparin", "type": "biochemical", "conditions": "for IC50: IC50 values are +/−20%", "experimental": "Since ULCs are formed as part of a dynamic equilibrium between heparin and PF4, dynamic light scattering (DLS) was performed to measure the ability of the exemplified compounds to disrupt preformed ULCs. Samples were analyzed and included PF4 incubated in the absence or presence of unfractionated heparin (UFH) for 20 min at room temperature at PF4 to heparin ratios (PHR) of 1:0 (no heparin), 2:1, and 0.64:1. The samples were then analyzed using photon correlation spectroscopy on a DynaPro® DLS instrument and Dynamics® software (V6.7.6; […]) to obtain correlation function. The results of the DLS analysis indicate the percentage of ULCs and small PF4 particles. Data for the small particles (a population of particles with a mean hydrodynamic diameter of about 1 nm) and data for the large particles (a population of particles with a mean hydrodynamic diameter of about 300 nm) is assessed. Data are expressed as the percent of total intensity from each measurement, the mean of 10 measurements, and representative of two such experiments.\nELISA measurement and gel filtration measurement of ULC inhibition were performed as described in International Patent Publication No. WO2013/142328, which is incorporated herein by reference. Similarly, assays in which heparin concentrations are varied to determine the effect on ULC inhibition were performed as described in that publication.\nCertain compounds were evaluated for their ability to inhibit formation of ultra large complexes (ULC) between PF4 tetramers and heparin."}, "[2]": {"assay": "Mouse microsome stability", "type": "in vitro ADME", "conditions": "for half-life at 0.5 μM: Mouse microsomes, compound conc = 0.5 μM, n = 1, read-out: Mouse microsome stability Half life t1/2; for intrinsic clearance in mouse microsome assay / stability in mouse microsome assay: mouse microsomes", "source_text": "(§1) Certain exemplified compounds were examined for ADMET (absorption, distribution, metabolism, excretion and toxicity) profiling using conventional assays with the results shown in the Tables 3A-3C below."}, "P450 1A2": {"biological_target": "T2, P450 1A2 (Homo sapiens, UniProt P05177)", "T2 sequence (P05177 1-516)": "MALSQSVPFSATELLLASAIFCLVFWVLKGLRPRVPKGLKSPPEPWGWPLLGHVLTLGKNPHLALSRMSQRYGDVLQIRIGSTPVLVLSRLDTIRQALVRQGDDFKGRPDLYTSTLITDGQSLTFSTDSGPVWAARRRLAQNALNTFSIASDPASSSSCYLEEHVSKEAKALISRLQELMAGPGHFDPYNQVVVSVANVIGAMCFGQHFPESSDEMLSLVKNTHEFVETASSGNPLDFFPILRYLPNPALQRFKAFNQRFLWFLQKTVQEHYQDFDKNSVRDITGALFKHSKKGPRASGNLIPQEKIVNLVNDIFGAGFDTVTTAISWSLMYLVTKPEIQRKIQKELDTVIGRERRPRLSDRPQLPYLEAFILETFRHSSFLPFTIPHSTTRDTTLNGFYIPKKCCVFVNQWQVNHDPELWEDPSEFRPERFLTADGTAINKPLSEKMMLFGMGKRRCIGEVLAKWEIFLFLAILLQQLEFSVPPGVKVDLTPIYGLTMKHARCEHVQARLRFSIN", "assay": "P450 inhibition 1A2", "type": "in vitro ADME", "experimental": "as §1\n(§2) Examples 1 and 3 were evaluated as inhibitors of the five P450s that are the source of most DDI issues. […] The tested compounds meet drug property criteria for IV administration."}, "[3]": {"assay": "Cytotoxicity HepG2 (MTS reduction)", "type": "cell-based", "conditions": "human, HepG2 cells; read-out: Cytotox HepG2 EC50"}, "P450 3A4 (midazolam)": {"biological_target": "P450 3A4 (midazolam) (Homo sapiens, UniProt P08684)", "sequence (P08684 whole entry)": "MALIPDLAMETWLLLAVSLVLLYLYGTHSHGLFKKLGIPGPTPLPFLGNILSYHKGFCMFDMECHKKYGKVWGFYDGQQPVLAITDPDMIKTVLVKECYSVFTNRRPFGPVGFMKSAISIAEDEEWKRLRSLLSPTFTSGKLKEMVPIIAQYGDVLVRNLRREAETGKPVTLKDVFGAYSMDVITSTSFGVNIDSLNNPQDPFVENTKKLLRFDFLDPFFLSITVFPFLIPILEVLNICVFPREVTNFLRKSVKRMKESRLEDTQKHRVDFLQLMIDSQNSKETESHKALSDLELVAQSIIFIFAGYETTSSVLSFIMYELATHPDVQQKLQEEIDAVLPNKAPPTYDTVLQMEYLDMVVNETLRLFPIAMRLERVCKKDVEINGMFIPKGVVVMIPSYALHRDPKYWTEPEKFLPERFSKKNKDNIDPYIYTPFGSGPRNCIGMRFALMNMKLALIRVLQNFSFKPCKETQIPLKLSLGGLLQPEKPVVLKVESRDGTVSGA", "assay": "P450 inhibition 3A4 (midazolam)", "type": "in vitro ADME", "experimental": "as §1, §2"}, "[4]": {"biological_target": "human Ether-à-go-go-Related Gene (hERG) (Homo sapiens, UniProt Q12809)", "sequence (Q12809 whole entry)": "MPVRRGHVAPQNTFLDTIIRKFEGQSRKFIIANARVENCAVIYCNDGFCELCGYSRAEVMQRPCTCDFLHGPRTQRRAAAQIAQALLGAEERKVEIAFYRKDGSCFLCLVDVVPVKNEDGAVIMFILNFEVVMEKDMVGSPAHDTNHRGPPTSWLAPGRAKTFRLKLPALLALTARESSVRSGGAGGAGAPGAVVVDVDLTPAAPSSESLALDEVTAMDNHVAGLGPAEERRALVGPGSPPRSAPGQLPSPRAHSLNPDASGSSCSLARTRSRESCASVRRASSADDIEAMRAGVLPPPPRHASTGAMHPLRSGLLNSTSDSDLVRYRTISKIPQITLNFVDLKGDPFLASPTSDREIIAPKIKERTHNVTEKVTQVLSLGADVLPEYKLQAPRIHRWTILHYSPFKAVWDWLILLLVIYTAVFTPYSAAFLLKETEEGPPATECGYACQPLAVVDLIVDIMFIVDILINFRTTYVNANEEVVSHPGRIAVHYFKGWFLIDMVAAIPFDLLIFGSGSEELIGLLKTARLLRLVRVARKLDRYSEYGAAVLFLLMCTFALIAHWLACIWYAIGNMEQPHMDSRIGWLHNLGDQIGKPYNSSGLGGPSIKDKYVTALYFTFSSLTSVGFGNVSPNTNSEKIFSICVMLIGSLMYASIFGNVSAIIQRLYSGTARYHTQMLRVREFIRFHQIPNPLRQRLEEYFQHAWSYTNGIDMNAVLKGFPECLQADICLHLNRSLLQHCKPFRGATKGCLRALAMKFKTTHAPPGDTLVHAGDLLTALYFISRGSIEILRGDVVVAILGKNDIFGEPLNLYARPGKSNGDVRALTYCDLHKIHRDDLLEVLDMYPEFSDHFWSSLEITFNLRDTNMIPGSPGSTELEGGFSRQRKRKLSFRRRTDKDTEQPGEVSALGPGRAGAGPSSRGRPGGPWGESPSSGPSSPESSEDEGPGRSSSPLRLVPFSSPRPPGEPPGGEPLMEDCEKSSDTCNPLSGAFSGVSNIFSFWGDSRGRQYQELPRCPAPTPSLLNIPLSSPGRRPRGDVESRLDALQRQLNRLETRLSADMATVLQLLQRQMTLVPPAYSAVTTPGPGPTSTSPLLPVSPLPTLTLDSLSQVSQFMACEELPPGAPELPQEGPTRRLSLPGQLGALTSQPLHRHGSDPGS", "assay": "hERG patch clamp assay", "type": "in vitro ADME", "conditions": "for hERG inhibition: 30 μM concentration, patch clamp", "experimental": "as §1, §2"}, "P450 2C19": {"biological_target": "P450 2C19 (Homo sapiens, UniProt P33261)", "sequence (P33261 whole entry)": "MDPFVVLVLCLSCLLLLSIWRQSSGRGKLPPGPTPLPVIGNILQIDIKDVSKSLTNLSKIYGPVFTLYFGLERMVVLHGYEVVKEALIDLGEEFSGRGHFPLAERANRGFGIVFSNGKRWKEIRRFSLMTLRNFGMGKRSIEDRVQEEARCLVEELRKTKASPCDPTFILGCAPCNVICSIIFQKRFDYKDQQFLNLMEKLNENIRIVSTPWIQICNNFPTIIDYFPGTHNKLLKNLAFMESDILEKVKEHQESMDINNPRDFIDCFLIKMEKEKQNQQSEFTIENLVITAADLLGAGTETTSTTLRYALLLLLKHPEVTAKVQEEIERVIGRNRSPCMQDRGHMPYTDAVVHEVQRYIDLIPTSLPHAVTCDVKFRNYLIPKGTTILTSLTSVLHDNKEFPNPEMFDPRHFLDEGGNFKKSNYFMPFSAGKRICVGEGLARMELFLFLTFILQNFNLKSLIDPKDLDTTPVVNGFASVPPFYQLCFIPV", "assay": "P450 inhibition 2C19", "type": "in vitro ADME", "experimental": "as §1, §2"}, "[5]": {"assay": "Kinetic solubility pH 7.4", "type": "physicochemical", "source_text": "as §1"}, "[6]": {"assay": "Human microsome stability", "type": "in vitro ADME", "conditions": "for half-life at 0.5 μM / microsomal CLint at 0.5 μM: Human microsomes, compound conc = 0.5 μM, n = 1; for half-life at 0.5 μM: read-out: Human microsome stability Half life t1/2; for microsomal CLint at 0.5 μM: read-out: Human microsome stability Intrinsic Clearance Clint (ml/min/mg protein); for intrinsic clearance in human microsome assay / stability in human microsome assay: human microsomes", "source_text": "as §1"}, "[7]": {"assay": "Cytotoxicity NIH3T3 (MTS reduction)", "type": "cell-based", "conditions": "mouse, NIH3T3 cells, 1 hour exposure in the absence of serum, N = 3, read-out: Cytotox NIH3T3 EC50"}, "P450 2D6": {"biological_target": "P450 2D6 (Homo sapiens, UniProt P10635)", "sequence (P10635 whole entry)": "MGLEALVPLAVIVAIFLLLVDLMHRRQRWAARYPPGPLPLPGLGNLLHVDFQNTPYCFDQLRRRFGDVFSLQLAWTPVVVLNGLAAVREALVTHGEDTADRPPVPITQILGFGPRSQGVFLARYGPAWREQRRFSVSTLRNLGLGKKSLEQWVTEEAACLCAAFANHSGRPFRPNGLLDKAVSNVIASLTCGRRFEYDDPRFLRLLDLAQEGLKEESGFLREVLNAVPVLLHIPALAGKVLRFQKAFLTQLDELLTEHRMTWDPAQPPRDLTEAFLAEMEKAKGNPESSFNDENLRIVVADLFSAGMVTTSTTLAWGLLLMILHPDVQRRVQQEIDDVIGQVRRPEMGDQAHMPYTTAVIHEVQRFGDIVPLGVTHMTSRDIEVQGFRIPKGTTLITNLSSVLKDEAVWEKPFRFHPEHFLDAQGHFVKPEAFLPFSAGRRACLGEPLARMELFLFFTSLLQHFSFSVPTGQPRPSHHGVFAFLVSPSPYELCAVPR", "assay": "P450 inhibition 2D6", "type": "in vitro ADME", "experimental": "as §1, §2"}, "P450 2C9": {"biological_target": "P450 2C9 (Homo sapiens, UniProt P11712)", "sequence (P11712 whole entry)": "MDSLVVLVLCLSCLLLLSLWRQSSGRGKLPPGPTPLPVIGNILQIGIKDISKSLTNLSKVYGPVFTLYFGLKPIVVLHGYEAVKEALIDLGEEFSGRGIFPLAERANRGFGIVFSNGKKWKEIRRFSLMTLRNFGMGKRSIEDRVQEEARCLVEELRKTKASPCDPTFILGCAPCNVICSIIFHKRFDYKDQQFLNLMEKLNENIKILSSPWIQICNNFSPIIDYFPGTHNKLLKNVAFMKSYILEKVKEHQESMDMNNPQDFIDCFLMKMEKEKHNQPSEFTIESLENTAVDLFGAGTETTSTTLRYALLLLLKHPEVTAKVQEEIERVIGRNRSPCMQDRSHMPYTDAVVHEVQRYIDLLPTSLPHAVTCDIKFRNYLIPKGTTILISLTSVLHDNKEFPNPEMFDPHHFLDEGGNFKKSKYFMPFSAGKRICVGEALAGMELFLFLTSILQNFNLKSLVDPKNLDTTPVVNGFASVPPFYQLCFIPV", "assay": "P450 inhibition 2C9", "type": "in vitro ADME", "experimental": "as §1, §2"}, "[8]": {"conditions": "pH 7.4, aqueous buffer, kinetic from dmso stock"}}, "note": "Like-named read-outs stand apart in the source and are kept apart here.", "data": [{"compound": "CC(=O)C1C(=O)c2ccc(C(=O)c3ccc4c(c3)C(=O)C(C(C)=O)C4=O)cc2C1=O", "note": "(stereo not drawn) [Example 1, 5,5′-carbonylbis(2-acetyl-1h-indene-1,3(2h)-dione)]", "values": [{"measurement": "IC50", "setting": "[1]", "value": 8, "unit": "µM"}, {"measurement": "half-life at 0.5 μM", "setting": "[2]", "value": "> 2.42", "unit": "h"}, {"measurement": "intrinsic clearance in mouse microsome assay", "setting": "[2]", "value": "low intrinsic clearance"}, {"measurement": "stability in mouse microsome assay", "setting": "[2]", "value": "excellent stability"}, {"measurement": "IC50", "setting": "P450 1A2", "value": 46.7, "unit": "µM"}, {"measurement": "inhibition of P450 1A2", "setting": "P450 1A2", "value": "moderate inhibition"}, {"measurement": "EC50", "setting": "[3]", "value": "> 1000", "unit": "µg/mL"}, {"measurement": "IC50", "setting": "P450 3A4 (midazolam)", "value": "> 100", "unit": "µM"}, {"measurement": "inhibition of P450 3A4 midazolam", "setting": "P450 3A4 (midazolam)", "value": "no inhibition"}, {"measurement": "IC50", "setting": "[4]", "value": "> 30", "unit": "µM"}, {"measurement": "hERG inhibition", "setting": "[4]", "value": "no significant inhibition"}, {"measurement": "IC50", "setting": "P450 2C19", "value": "> 100", "unit": "µM"}, {"measurement": "inhibition of P450 2C19", "setting": "P450 2C19", "value": "no inhibition"}, {"measurement": "solubility kinetic", "setting": "[5]; pH 7.4", "value": ">200", "unit": "µM"}, {"measurement": "solubility kinetic", "setting": "[5]; [8]", "value": "> 200", "unit": "µM"}, {"measurement": "half-life at 0.5 μM", "setting": "[6]", "value": 1.44, "unit": "h"}, {"measurement": "microsomal CLint at 0.5 μM", "setting": "[6]", "value": 15.8, "unit": "mL/min/mg"}, {"measurement": "intrinsic clearance in human microsome assay", "setting": "[6]", "value": "low intrinsic clearance"}, {"measurement": "stability in human microsome assay", "setting": "[6]", "value": "excellent stability"}, {"measurement": "EC50 at 1 h", "setting": "[7]", "value": "> 1000", "unit": "µg/mL"}, {"measurement": "IC50", "setting": "P450 2D6", "value": "> 100", "unit": "µM"}, {"measurement": "inhibition of P450 2D6", "setting": "P450 2D6", "value": "no inhibition"}, {"measurement": "IC50", "setting": "P450 2C9", "value": 31.9, "unit": "µM"}, {"measurement": "inhibition of P450 2C9", "setting": "P450 2C9", "value": "only moderate inhibition"}]}, {"compound": "CCOC(=O)C1C(=O)c2ccc(C(=O)c3ccc4c(c3)C(=O)C(C(=O)OCC)C4=O)cc2C1=O", "note": "(stereo not drawn) [Example 3, diethyl 5,5′-carbonylbis(1,3-dioxo-2,3-dihydro-1h-indene-2-carboxylate)]", "values": [{"measurement": "inhibition of ULC formation", "setting": "[1]; FIG. 6B", "value": "dose-dependent inhibition"}, {"measurement": "IC50", "setting": "[1]", "value": 2, "unit": "µM"}, {"measurement": "half-life at 0.5 μM", "setting": "[2]", "value": "> 2.42", "unit": "h"}, {"measurement": "intrinsic clearance in mouse microsome assay", "setting": "[2]", "value": "low intrinsic clearance"}, {"measurement": "stability in mouse microsome assay", "setting": "[2]", "value": "excellent stability"}, {"measurement": "IC50", "setting": "P450 1A2", "value": "> 100", "unit": "µM"}, {"measurement": "EC50", "setting": "[3]", "value": "> 500", "unit": "µg/mL"}, {"measurement": "inhibition of P450 3A4 midazolam", "setting": "P450 3A4 (midazolam)", "value": "no inhibition"}, {"measurement": "IC50", "setting": "P450 3A4 (midazolam); midazolam, read-out: P450 Inhibition IC50 3A4 (midazolam)", "value": "> 100", "unit": "µM"}, {"measurement": "hERG inhibition", "setting": "[4]", "value": "no significant inhibition"}, {"measurement": "IC50", "setting": "[4]; read-out: hERG IC50", "value": "> 30", "unit": "µM"}, {"measurement": "inhibition of P450 2C19", "setting": "P450 2C19", "value": "no inhibition"}, {"measurement": "IC50", "setting": "P450 2C19; read-out: P450 Inhibition IC50 2C19", "value": "> 100", "unit": "µM"}, {"measurement": "aqueous solubility", "setting": "[5]", "value": "good aqueous solubility"}, {"measurement": "solubility kinetic", "setting": "[5]; [8]", "value": 88.2, "unit": "µM"}, {"measurement": "half-life at 0.5 μM", "setting": "[6]", "value": "> 2.42", "unit": "h"}, {"measurement": "microsomal CLint at 0.5 μM", "setting": "[6]", "value": "< 9.5", "unit": "mL/min/mg"}, {"measurement": "intrinsic clearance in human microsome assay", "setting": "[6]", "value": "low intrinsic clearance"}, {"measurement": "stability in human microsome assay", "setting": "[6]", "value": "excellent stability"}, {"measurement": "EC50 at 1 h", "setting": "[7]", "value": "> 500", "unit": "µg/mL"}, {"measurement": "inhibition of P450 2D6", "setting": "P450 2D6", "value": "no inhibition"}, {"measurement": "IC50", "setting": "P450 2D6; read-out: P450 Inhibition IC50 2D6", "value": "> 100", "unit": "µM"}, {"measurement": "inhibition of P450 2C9", "setting": "P450 2C9", "value": "only moderate inhibition"}, {"measurement": "IC50", "setting": "P450 2C9; read-out: P450 Inhibition IC50 2C9", "value": 16.7, "unit": "µM"}]}]}
